Source: ChEMBL document CHEMBL1135871, “Sordarin oxazepine derivatives as potent antifungal agents” (2002)
Converted amounts (≈) assume the structure as drawn.

Legend:
Type in all cases: functional
Nakaseomyces glabratus = experiment: Minimum inhibitory concentration required to inhibit 90-100%growth of Candida glabrata
Cryptococcus neoformans = experiment: Minimum inhibitory concentration required to inhibit 90-100% growth of Cryptococcus neoformans
Candida albicans = experiment: Minimum inhibitory concentration required to inhibit 90-100%growth of Candida albicans

COc1ccc(N2C[C@@H](C)O[C@@H](OCC34C[C@@H]5[C@H](C)CC[C@H]5C5(C=O)CC3C=C(C(C)C)[C@@]45C(=O)O)[C@@H](O)C2)cc1
MIC (Nakaseomyces glabratus): 64 µg/mL (≈ 113 µM)
MIC (Cryptococcus neoformans): > 128 µg/mL
MIC (Candida albicans): 2 µg/mL (≈ 3.52 µM)

C=C(Cl)CN1C[C@H](OCC23C[C@@H]4[C@H](C)CC[C@H]4C4(C=O)CC2C=C(C(C)C)[C@@]34C(=O)O)O[C@H](C)C1
MIC (Nakaseomyces glabratus): 0.125 µg/mL (≈ 0.247 µM)
MIC (Cryptococcus neoformans): 16 µg/mL (≈ 31.6 µM)
MIC (Candida albicans): < 0.06 µg/mL

C=C(Cl)CN1C[C@@H](C)O[C@@H](OCC23C[C@@H]4[C@H](C)CC[C@H]4C4(C=O)CC2C=C(C(C)C)[C@@]34C(=O)O)[C@@H](O)C1
MIC (Nakaseomyces glabratus): 32 µg/mL (≈ 59.7 µM)
MIC (Cryptococcus neoformans): 4 µg/mL (≈ 7.46 µM)
MIC (Candida albicans): 0.5 µg/mL (≈ 0.933 µM)

C=C(Cl)CN1C[C@@H](C)O[C@@H](OCC23C[C@@H]4[C@H](C)CC[C@H]4C4(C=O)CC2C=C(C(C)C)[C@@]34C(=O)O)[C@@H](OC(C)=O)C1
MIC (Nakaseomyces glabratus): 16 µg/mL (≈ 27.7 µM)
MIC (Cryptococcus neoformans): > 128 µg/mL
MIC (Candida albicans): 8 µg/mL (≈ 13.8 µM)

CO[C@H]1[C@@H](O)[C@H](O)[C@H](OC[C@@]23C[C@@H]4[C@H](C)CC[C@H]4[C@@]4(C=O)CC2C=C(C(C)C)[C@@]34C(=O)O)O[C@@H]1C [SORDARIN]
MIC (Nakaseomyces glabratus): > 128 µg/mL
MIC (Cryptococcus neoformans): 8 µg/mL (≈ 16.2 µM)
MIC (Candida albicans): 16 µg/mL (≈ 32.5 µM)

CC(C)C1=CC2CC3(C=O)[C@@H]4CC[C@@H](C)[C@H]4CC2(CO[C@@H]2O[C@H](C)CN(CC4CC4)C[C@@H]2O)[C@]13C(=O)O
MIC (Nakaseomyces glabratus): > 128 µg/mL
MIC (Cryptococcus neoformans): > 128 µg/mL
MIC (Candida albicans): > 16 µg/mL

C=C(Cl)CN1C[C@@H](C)O[C@@H](OCC23C[C@@H]4[C@H](C)CC[C@H]4C4(C=O)CC2C=C(C(C)C)[C@@]34C(=O)O)[C@@H](OC)C1
MIC (Nakaseomyces glabratus): 64 µg/mL (≈ 116 µM)
MIC (Cryptococcus neoformans): > 128 µg/mL
MIC (Candida albicans): 4 µg/mL (≈ 7.27 µM)

CC(C)C1=CC2CC3(C=O)[C@@H]4CC[C@@H](C)[C@H]4CC2(CO[C@@H]2O[C@H](C)CN(CCC4=CCCCC4)C[C@@H]2O)[C@]13C(=O)O
MIC (Nakaseomyces glabratus): > 128 µg/mL
MIC (Cryptococcus neoformans): > 128 µg/mL
MIC (Candida albicans): 2 µg/mL (≈ 3.51 µM)

CC(C)C1=CC2CC3(C=O)[C@@H]4CC[C@@H](C)[C@H]4CC2(CO[C@@H]2O[C@H](C)[C@@H](O)[C@@H](O)[C@@H]2O)[C@]13C(=O)O
MIC (Nakaseomyces glabratus): > 128 µg/mL
MIC (Cryptococcus neoformans): > 128 µg/mL
MIC (Candida albicans): > 128 µg/mL

CC(C)C1=CC2CC3(C=O)[C@@H]4CC[C@@H](C)[C@H]4CC2(CO[C@@H]2O[C@H](C)CN(CCC(F)(F)F)C[C@@H]2O)[C@]13C(=O)O
MIC (Nakaseomyces glabratus): 32 µg/mL (≈ 57.4 µM)
MIC (Cryptococcus neoformans): > 128 µg/mL
MIC (Candida albicans): 1 µg/mL (≈ 1.79 µM)

COc1ccc(CN2C[C@@H](C)O[C@@H](OCC34C[C@@H]5[C@H](C)CC[C@H]5C5(C=O)CC3C=C(C(C)C)[C@@]45C(=O)O)[C@@H](O)C2)cc1
MIC (Nakaseomyces glabratus): 1 µg/mL (≈ 1.72 µM)
MIC (Cryptococcus neoformans): > 128 µg/mL
MIC (Candida albicans): < 0.06 µg/mL

COCCN1C[C@@H](C)O[C@@H](OCC23C[C@@H]4[C@H](C)CC[C@H]4C4(C=O)CC2C=C(C(C)C)[C@@]34C(=O)O)[C@@H](O)C1
MIC (Nakaseomyces glabratus): > 128 µg/mL
MIC (Cryptococcus neoformans): > 128 µg/mL
MIC (Candida albicans): 16 µg/mL (≈ 30.8 µM)

CC(C)C1=CC2CC3(C=O)[C@@H]4CC[C@@H](C)[C@H]4CC2(CO[C@@H]2O[C@H](C)CN(Cc4ccccc4Cl)C[C@@H]2O)[C@]13C(=O)O
MIC (Nakaseomyces glabratus): > 128 µg/mL
MIC (Cryptococcus neoformans): 128 µg/mL (≈ 218 µM)
MIC (Candida albicans): 2 µg/mL (≈ 3.41 µM)

CC(C)C1=CC2CC3(C=O)[C@@H]4CC[C@@H](C)[C@H]4CC2(CO[C@@H]2O[C@H](C)CN(Cc4cccs4)C[C@@H]2O)[C@]13C(=O)O
MIC (Nakaseomyces glabratus): 128 µg/mL (≈ 229 µM)
MIC (Cryptococcus neoformans): 32 µg/mL (≈ 57.4 µM)
MIC (Candida albicans): 2 µg/mL (≈ 3.59 µM)

Cc1coc(CN2C[C@@H](C)O[C@@H](OCC34C[C@@H]5[C@H](C)CC[C@H]5C5(C=O)CC3C=C(C(C)C)[C@@]45C(=O)O)[C@@H](O)C2)c1
MIC (Nakaseomyces glabratus): > 128 µg/mL
MIC (Cryptococcus neoformans): 32 µg/mL (≈ 57.6 µM)
MIC (Candida albicans): 2 µg/mL (≈ 3.6 µM)

C=C(C)CN1C[C@@H](C)O[C@@H](OCC23C[C@@H]4[C@H](C)CC[C@H]4C4(C=O)CC2C=C(C(C)C)[C@@]34C(=O)O)[C@@H](O)C1
MIC (Nakaseomyces glabratus): 64 µg/mL (≈ 124 µM)
MIC (Cryptococcus neoformans): > 64 µg/mL
MIC (Candida albicans): 0.125 µg/mL (≈ 0.242 µM)

C=C(Cl)CN1C[C@@H](C)O[C@@H](OCC23C[C@@H]4[C@H](C)CC[C@H]4C4(C=O)CC2C=C(C(C)C)[C@@]34C(=O)O)[C@H](F)C1
MIC (Nakaseomyces glabratus): 2 µg/mL (≈ 3.72 µM)
MIC (Cryptococcus neoformans): 16 µg/mL (≈ 29.7 µM)
MIC (Candida albicans): < 0.06 µg/mL

CC(C)C1=CC2CC3(C=O)[C@@H]4CC[C@@H](C)[C@H]4CC2(CO[C@@H]2O[C@H](C)CN(CCc4ncc[nH]4)C[C@@H]2O)[C@]13C(=O)O
MIC (Nakaseomyces glabratus): > 128 µg/mL
MIC (Cryptococcus neoformans): > 128 µg/mL
MIC (Candida albicans): > 128 µg/mL

C=C(Cl)CN1CC[C@H](OCC23C[C@@H]4[C@H](C)CC[C@H]4C4(C=O)CC2C=C(C(C)C)[C@@]34C(=O)O)O[C@H](C)C1
MIC (Nakaseomyces glabratus): 2 µg/mL (≈ 3.85 µM)
MIC (Cryptococcus neoformans): 1 µg/mL (≈ 1.92 µM)
MIC (Candida albicans): 0.125 µg/mL (≈ 0.24 µM)

C=CCN1C[C@@H](C)O[C@@H](OCC23C[C@@H]4[C@H](C)CC[C@H]4C4(C=O)CC2C=C(C(C)C)[C@@]34C(=O)O)[C@@H](O)C1
MIC (Nakaseomyces glabratus): 128 µg/mL (≈ 255 µM)
MIC (Cryptococcus neoformans): > 128 µg/mL
MIC (Candida albicans): 8 µg/mL (≈ 15.9 µM)
